Structures are written as SMILES.

Assay [1] deals with T1, Bifunctional epoxide hydrolase 2 (Mus musculus, UniProt P34914).
T1 sequence (P34914 whole entry): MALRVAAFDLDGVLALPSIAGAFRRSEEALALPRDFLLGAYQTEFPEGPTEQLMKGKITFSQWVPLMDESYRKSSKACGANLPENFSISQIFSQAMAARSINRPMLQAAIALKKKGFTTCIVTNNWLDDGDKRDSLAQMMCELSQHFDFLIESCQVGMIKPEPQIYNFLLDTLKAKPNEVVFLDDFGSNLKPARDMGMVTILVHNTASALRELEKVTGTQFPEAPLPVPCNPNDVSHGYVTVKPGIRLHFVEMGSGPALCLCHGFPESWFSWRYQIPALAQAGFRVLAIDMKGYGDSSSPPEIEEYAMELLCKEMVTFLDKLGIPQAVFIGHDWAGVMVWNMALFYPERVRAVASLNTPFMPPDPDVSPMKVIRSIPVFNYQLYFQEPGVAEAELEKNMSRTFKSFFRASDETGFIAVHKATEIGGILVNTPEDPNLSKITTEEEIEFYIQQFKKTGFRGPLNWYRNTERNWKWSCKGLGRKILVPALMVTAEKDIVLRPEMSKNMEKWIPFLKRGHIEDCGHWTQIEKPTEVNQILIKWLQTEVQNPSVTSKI
Briefly: Inhibition of recombinant mouse soluble epoxide hydrolase using PHOME as substrate assessed as 6-methoxynaphthaldehyde product formation preincubated with compound for 10 mins followed by substrate addition and measured by fluorescence based analysis.

Assay [2] deals with T2, Bifunctional epoxide hydrolase 2 (Homo sapiens, UniProt P34913).
T2 sequence (P34913 whole entry): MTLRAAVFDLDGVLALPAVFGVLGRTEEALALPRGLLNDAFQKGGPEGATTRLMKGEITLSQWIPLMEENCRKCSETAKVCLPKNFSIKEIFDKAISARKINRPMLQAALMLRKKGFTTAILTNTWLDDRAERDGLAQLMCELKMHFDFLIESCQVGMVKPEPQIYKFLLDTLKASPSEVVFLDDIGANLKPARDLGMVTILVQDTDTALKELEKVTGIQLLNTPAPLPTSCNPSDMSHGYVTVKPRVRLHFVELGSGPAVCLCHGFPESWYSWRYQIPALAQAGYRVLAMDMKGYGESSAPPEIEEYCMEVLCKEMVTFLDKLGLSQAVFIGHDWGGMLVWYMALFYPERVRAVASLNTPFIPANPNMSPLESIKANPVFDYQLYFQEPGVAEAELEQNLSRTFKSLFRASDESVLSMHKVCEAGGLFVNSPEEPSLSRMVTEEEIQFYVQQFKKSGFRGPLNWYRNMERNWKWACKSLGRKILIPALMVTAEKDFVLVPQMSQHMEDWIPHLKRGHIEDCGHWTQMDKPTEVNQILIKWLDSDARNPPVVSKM
Put plainly: Inhibition of recombinant human soluble epoxide hydrolase using PHOME as substrate assessed as 6-methoxynaphthaldehyde product formation preincubated with compound for 10 mins followed by substrate addition and measured by fluorescence based analysis.

Consider `C[C@]12C[C@@H]3C[C@](C)(C1)C[C@@](NC(=O)Nc1ccc(CN4CCCN(C(=O)CC5CCN(CC(O)CO)CC5)CC4)cc1F)(C3)C2` (some centres not stated), for which the figures for the IC50 in assay [1] and in assay [2] were 1.25 nM and 58.1 nM, respectively.
Regarding `C[C@]12C[C@@H]3C[C@](C)(C1)C[C@@](NC(=O)Nc1ccc(C(=O)N4CCCC(C(=O)N5CCN(CCO)CC5)C4)cc1F)(C3)C2` (some centres not stated), the IC50 in assay [1] stood at 0.15 nM; in assay [2], 0.84 nM.
Turning to `CCN(CC)C(=O)C1CCN(C(=O)c2ccc(NC(=O)N[C@@]34C[C@@H]5C[C@@](C)(C[C@@](C)(C5)C3)C4)c(F)c2)CC1`, the IC50 in assay [1] stood at 0.53 nM; in assay [2], 2.2 nM.
Turning to `CC(=O)N1CCCN(C(=O)C2CCCN(C(=O)c3ccc(NC(=O)N[C@@]45C[C@@H]6C[C@@](C)(C[C@@](C)(C6)C4)C5)c(F)c3)C2)CC1` (some centres not stated), the IC50 is 0.26 nM in assay [1] and 0.6 nM in assay [2].
`CCC(=O)N1CCC(CC(=O)N2CCCN(Cc3ccc(NC(=O)N[C@@]45C[C@@H]6C[C@@](C)(C[C@@](C)(C6)C4)C5)c(F)c3)CC2)CC1`: the IC50 in assay [1] came to 0.07 nM; in assay [2], 0.33 nM.
In the case of `CC(O)CNC(=O)C1CCC(NC(=O)c2ccc(NC(=O)N[C@@]34C[C@@H]5C[C@@](C)(C[C@@](C)(C5)C3)C4)c(F)c2)CC1` (some centres not stated), the IC50 in assay [1] came to 0.44 nM; in assay [2] it was 1.54 nM.
With `C[C@]12C[C@@H]3C[C@](C)(C1)C[C@@](NC(=O)Nc1ccc(C(=O)NC4CCC(C(=O)NCCO)CC4)cc1F)(C3)C2` (some centres not stated), the IC50 in assay [1] was determined as 0.18 nM; in assay [2], 0.8 nM.
For `C[C@]12C[C@@H]3C[C@](C)(C1)C[C@@](NC(=O)Nc1ccc(CN4CCC(C(N)=O)CC4)cc1F)(C3)C2`, the IC50 in assay [1] came to 0.06 nM; in assay [2], 1.54 nM.
On to `C[C@]12C[C@@H]3C[C@](C)(C1)C[C@@](NC(=O)Nc1ccc(CN4CCCC(C(N)=O)C4)cc1F)(C3)C2` (some centres not stated), for which the IC50 came to 0.09 nM in assay [1] and 0.14 nM in assay [2].
Take `C[C@]12C[C@@H]3C[C@](C)(C1)C[C@@](NC(=O)Nc1ccc(CN4CCCC(C(=O)NCCO)C4)cc1F)(C3)C2` (some centres not stated): the IC50 amounted to 0.18 nM in assay [1] and 0.63 nM in assay [2].
`CC(C)(C)OC(=O)N1CCN(CCNC(=O)C2CCC(NC(=O)c3ccc(NC(=O)N[C@@]45C[C@@H]6C[C@@](C)(C[C@@](C)(C6)C4)C5)c(F)c3)CC2)CC1` (some centres not stated): the figures for the IC50 in assay [1] and in assay [2] were 2 nM and 183 nM, respectively.

For the origin of these results see ChEMBL document CHEMBL5380778, “Structure-Directed Discovery of Potent Soluble Epoxide Hydrolase Inhibitors for the Treatment of Inflammatory Diseases” (J Med Chem, 2023).
